Like-named read-outs stand apart in the source and are kept apart here.
Tests used:
C57BL/6J male mice = assay: Long term memory for object recognition (ORM); format: in vivo; details: s.c. 3, 10, 30 mg/kg
Protocol: C57BL/6J male mice were handled 1-2 min for 5 days and were habituated to the experimental apparatus 5 min a day for 4 consecutive days in the absence of objects. […] 24-h later mice were tested for memory retention (5 min) using the object recognition memory task (ORM), in which a familiar object was replaced with a novel one. All training and testing trials were videotaped and analyzed by individuals blind to the treatment condition and the genotype of subjects. A mouse was scored as exploring an object when its head was oriented toward the object within a distance of 1 cm or when the nose was touching the object. The relative exploration time was recorded and expressed by a discrimination index [DI=(tnovel−tfamiliar)/(tnovel+tfamiliar)×100].

HDAC1 = HDAC1 (Homo sapiens (Human), UniProt Q13547); assay: HDAC activity inhibition assay, HDAC1; format: biochemical
Protocol: (§1) The HDAC activity inhibition assay was performed as follows to determine the ability of a test compound to inhibit HDAC enzymatic activity. […] Following pre-incubation, Fluor-de-Lys™ substrate (Enzo Life Sciences, Plymouth Meeting, Pa., BML-KI104-0050) was added to a final concentration of 10 μM and plates were further incubated for 30 minutes at room temperature. […] IC50 values were calculated by using a sigmoidal dose-response (variable slope) equation in GraphPad Prism® 5 for Windows (GraphPad Software, La Jolla, Calif.).

HDAC2 = HDAC2 (Homo sapiens (Human), UniProt Q92769); assay: HDAC activity inhibition assay, HDAC2; format: biochemical
Protocol: as §1

HDAC3/NcoR2 = HDAC3/NcoR2 (Homo sapiens (Human), UniProt O15379); assay: HDAC activity inhibition assay, HDAC3/NcoR2; format: biochemical
Protocol: as §1

Frataxin (FXN) mRNA = assay: Effect of HDAC inhibitors on frataxin (FXN) mRNA expression in Friedreich's ataxia patient primary lymphocytes; format: cell-based, human; details: Table 4; concentration for 2-fold increase in FXN mRNA
Protocol: Blood is collected from Friedreich's ataxia patient donors into tubes containing the anti-coagulant EDTA. Primary lymphocytes are isolated using Lymphocyte Separation Medium (MP Biomedicals, Solon, Ohio) following the manufacturer's instructions and including a few modifications made by Repligen. After a final wash in Phosphate Buffered Saline (PBS), the cells are distributed into a 6-well cell culture plate in cell growth medium. The test HDAC inhibitor compound is added to cells in a dose escalating manner (usually concentrations range from 1 to 10 μM) and 0.1% DMSO is added to one well of cells as a no treatment control. Cells are incubated for 48 hours at 37° C. in a CO2 incubator; cell counts are taken using a Countess automated cell counter (Invitrogen, Carlsbad, Calif.). Equivalent numbers of cells for all treatment conditions are pelleted by centrifugation and resuspended in cell lysis buffer. Total RNA is isolated from approximately 1×10^6 primary lymphocytes using a RNeasy Mini Kit (Qiagen, Valencia, Calif.), following the manufacturer's instructions and including an optional on-column DNAse digestion step. The isolation is performed either manually or using the QIAcube (Qiagen, Valencia, Calif.), an instrument that automates much of the isolation procedure. The RNA yield and concentration is determined using a Nanodrop spectrophotometer (Thermo Fisher Scientific, Waltham, Mass.) and depending on the RNA concentration, one of two protocols is used to measure frataxin (FXN) transcript levels. For samples containing at least 15 ng/μL RNA a TaqMan® Probe-based (Applied Biosystems, Carlsbad, Calif.) qRT-PCR method is used, while for samples containing less than 15 ng/μL RNA a SYBR Green qRT-PCR method is used. In the TaqMan® Probe-based method specific primer/probe pairs for FXN and GAPDH are multiplexed in each reaction. In the SYBR Green method FXN and GAPDH are amplified in separate reactions. In both methods each RNA sample is analyzed in triplicate (preferably) or duplicate (minimally) using a one-step qRT-PCR master mix that contains all the components necessary for cDNA synthesis and PCR amplification in a single, continuous reaction. After cycling is complete, MxPro Software (Agilent Technologies, Santa Clara, Calif.) is used to analyze the collected data and determine the relative amount of FXN mRNA compared to a control sample. An adaptive baseline method is used for baseline correction whereby an algorithm automatically selects the appropriate baseline cycles for each well and each dye. An amplification-based threshold is set and the corresponding threshold cycle, or Ct, is obtained for calculating target concentration. The Ct values for each target gene (FXN and GAPDH) for each replicate series are averaged. The amount of FXN (or GAPDH) in the sample is determined as the relative quantity to the calibrator where the calibrator sample is assigned an arbitrary quantity of 1. The following equation is used: Relative quantity to the calibrator=2^−ΔCt where ΔCt=(Ct_gene)unknown−(Ct_gene)calibrator, gene is either FXN or GAPDH, calibrator is a DMSO control sample, and unknown is a HDACi treated sample. The relative quantity of FXN is normalized to cell number and RNA input. Data is reported in Tables 2 and 4 below, where the concentration required for a 2-fold increase in FXN mRNA is reported as A if less than 5 μM, B if between 5 and 10 μM, C if greater than 10 μM.

[1] = Brain penetration studies; details: Table 4; mice; Cmax(brain)/Cmax(plasma)
Protocol: Test compounds were prepared at either 0.5 mg/ml or 5 mg/ml in 30% hydroxypropyl-β-cyclodextrin, 100 mM sodium acetate pH 5.5, 5% DMSO. C57/BL6/J mice were dosed s.c. at 5 mg/kg or 50 mg/kg, or i.v. at 5 mg/kg. Animals were euthanized at pre-dose, 5, 15, 30 min, 1, 2 and 4 hours post-dose and plasma and brain obtained. Three animals per dose per time points were used. The levels of compound in the plasma and brain were determined by standard LC/MS/MS methods. Brain/plasma ratio (BPR) was calculated as the ratio of the Cmax(brain)/Cmax(plasma).

Human Hepatocytes = assay: Compound stability in hepatocytes; details: 5 μM
Protocol: To assess the stability and metabolism of RGFP compounds in hepatocytes. This assay was designed to evaluate the metabolism of RGFP compounds, following their incubation with human, monkey, dog and rat hepatocytes by monitoring either parent drug disappearance or metabolite appearance using HPLC.
Procedure: • Turn on the water-bath heater to 37° C. • Take out the KHB buffer and make sure it is at room temp before use • Prepare 2.5 mM concentration of RGFP compound in DMSO stock • Add 10 μL of above DMSO stock to 2490 μL KHB buffer; final concentration of RGFP compound will be 10 μM • Pre-warm 45 ml InVitro HT Medium to 37° C. in a sterile 50 ml conical tube • Add 1.0 mL Torpedo Antibiotic Mix per 45 mL InVitro HT medium • Transfer 13 mL of warm HT medium with Antibiotic Mix into a 15 mL conical tube. • Carefully remove the hepatocyte vials from liquid nitrogen (liquid phase). • Immediately immerse the vial into a 37° C. water bath. Shake gently until the ice melts entirely. […] Loosen the cell pellet by gently swirling the centrifuge tube • Transfer 100 μL of above solution to a different tube and add 900 μL of KHB buffer to count the cells • Determine the total cell count and the number of viable cells using the Trypan Blue exclusion method • Once you obtain the cell count, multiply the number by 10 (attributing to the dilution factor) • Now add required volume of KHB buffer to the tube containing hepatocytes such that the final count will be 2 million cells/mL • Dispense 50 μL of 2 million cells/ml to a 96 well plate and then add 50 μl of DMSO stock to respective wells (such that, the concentration of RGFP compounds is 5 μM and number of cells are 100000 in each well) • Place the plates on a shaker in a 37° C. incubator with 5% CO2 • Separate plates for each time point are advisable (Time points: 0 h, 1 h, 2 h, and 6 h) • After each time point, add 100 μL of quenching solution. • Quenching solution is an acetonitrile solution containing RGFP531 (10 μM) internal standard, 0.1% formic acid and phenylglyoxol (400 μM). The formic acid and phenylglyoxal is used for the identification and quantification of OPD as mentioned above. • Pipette up and down a few times to ensure a complete stop of reaction • Transfer all the solution into a 1.5 ml tube, vortex thoroughly, and centrifuge at 14000 RPM at 4° C. for 5 minutes to precipitate cell debris
Transfer the 150 μL of supernatant to vials for analysis using HPLC

[2] = system: GM 15850(lymphoblastoid cells line) cells; assay: In-cell deacetylase inhibition assay (DAC assay); format: cell-based; details: GM 15850 cells, 4 h incubation, read-out: 850 DAC (in-cell deacetylase inhibition IC50)
Protocol: Compound dilutions were made in 100% DMSO followed by parallel dilution in media with 2% DMSO. 10 μl of the compound dilutions were added to the cells to achieve the desired concentrations. The final concentration of DMSO in each well was 0.2%. The cells were incubated for 4 h at 37° C. with 5% CO2. After incubation, the cells were centrifuged down and the supernatant was removed. […] The reaction was stopped after 30 min incubation by addition of 50 μL developer (6 mg/mL trypsin in HDAC assay buffer). The reaction was allowed to develop for 30 min at room temperature and the fluorescence signal was detected using a fluorometer (Spectramax M2, Molecular Devices, Sunnyvale, Calif.) with excitation and emission wavelengths of 360 nm and 470 nm respectively. The data was fitted to a sigmoidal dose response equation with variable slope in GraphPad Prism 5.0 (GraphPad Software, La Jolla, Calif.) to determine IC50. Bottom and top of the curve were fixed to the average fluorescence response of control wells with no cells and cells but no compound respectively.

[3] = Table 1, 2 hours pre-incubation

Sequence of HDAC3/NcoR2 (O15379 whole entry): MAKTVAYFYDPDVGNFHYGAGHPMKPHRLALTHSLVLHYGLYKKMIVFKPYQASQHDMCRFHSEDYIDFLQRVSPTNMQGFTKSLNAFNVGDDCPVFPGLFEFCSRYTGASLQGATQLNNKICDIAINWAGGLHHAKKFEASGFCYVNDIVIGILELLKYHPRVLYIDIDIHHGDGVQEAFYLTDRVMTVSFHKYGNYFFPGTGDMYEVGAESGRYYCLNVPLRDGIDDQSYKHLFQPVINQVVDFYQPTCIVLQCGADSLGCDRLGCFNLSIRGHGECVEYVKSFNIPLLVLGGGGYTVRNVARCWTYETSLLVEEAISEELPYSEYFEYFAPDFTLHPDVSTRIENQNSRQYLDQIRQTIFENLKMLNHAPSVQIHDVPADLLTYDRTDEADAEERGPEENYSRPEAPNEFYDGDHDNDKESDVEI
Sequence of HDAC3/NcoR2 (Q9Y618 395-489 partner): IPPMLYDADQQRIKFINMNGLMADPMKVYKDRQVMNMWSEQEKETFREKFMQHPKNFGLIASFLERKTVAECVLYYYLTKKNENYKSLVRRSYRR
Sequence of HDAC2 (Q92769 whole entry): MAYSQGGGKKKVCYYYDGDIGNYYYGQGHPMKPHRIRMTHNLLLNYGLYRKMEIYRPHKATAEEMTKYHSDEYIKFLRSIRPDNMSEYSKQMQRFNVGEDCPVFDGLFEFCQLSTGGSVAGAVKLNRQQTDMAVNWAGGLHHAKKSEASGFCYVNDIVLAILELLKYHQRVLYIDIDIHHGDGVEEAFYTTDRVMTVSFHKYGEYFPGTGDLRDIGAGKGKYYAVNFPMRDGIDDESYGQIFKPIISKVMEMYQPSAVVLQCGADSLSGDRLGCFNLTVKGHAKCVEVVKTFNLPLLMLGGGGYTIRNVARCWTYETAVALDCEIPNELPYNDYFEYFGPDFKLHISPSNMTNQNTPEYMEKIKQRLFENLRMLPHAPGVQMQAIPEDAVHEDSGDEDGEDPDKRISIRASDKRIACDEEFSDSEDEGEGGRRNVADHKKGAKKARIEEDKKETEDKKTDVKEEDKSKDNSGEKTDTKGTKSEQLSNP
Sequence of HDAC1 (Q13547 whole entry): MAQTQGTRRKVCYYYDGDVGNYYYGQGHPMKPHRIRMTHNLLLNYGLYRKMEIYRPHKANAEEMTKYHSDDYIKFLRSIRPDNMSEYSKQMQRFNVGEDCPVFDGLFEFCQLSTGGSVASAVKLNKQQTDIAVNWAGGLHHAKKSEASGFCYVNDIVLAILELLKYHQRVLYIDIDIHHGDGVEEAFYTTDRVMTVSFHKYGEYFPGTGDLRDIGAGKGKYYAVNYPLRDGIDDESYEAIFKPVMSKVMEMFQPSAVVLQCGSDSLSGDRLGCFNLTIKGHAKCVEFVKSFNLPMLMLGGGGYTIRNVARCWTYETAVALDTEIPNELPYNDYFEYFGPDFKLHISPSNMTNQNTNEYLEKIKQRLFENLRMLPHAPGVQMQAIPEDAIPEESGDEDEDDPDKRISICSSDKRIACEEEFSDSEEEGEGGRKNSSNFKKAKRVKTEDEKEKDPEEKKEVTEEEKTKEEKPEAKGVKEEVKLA

Row | IC50 (HDAC1; Table 4) [nM] | IC50 (HDAC2; Table 4) [nM] | IC50 (HDAC3/NcoR2; Table 4) [nM] | BPR [1] | % left 6 h Hum (Human Hepatocytes) | SMILES | F × n > 2X (uM) (Frataxin (FXN) mRNA) | also measured
1 |  |  |  |  |  | Cc1ccc(C(=O)NCCCCCC(=O)Nc2ccc(F)cc2N)cc1 [RGFP 136, reference compound] |  | effect of dose on long-term memory for object recognition (C57BL/6J male mice): Dose dependent effects
2 |  |  |  |  |  | Nc1cc(F)ccc1NC(=O)/C=C/c1cnn(C/C=C/c2ccccc2)c1 [D2, (E)-N-(2-amino-4-fluorophenyl)-3-(1-cinnamyl-1H-pyrazol-4-yl)acrylamide] |  | effect of dose on long-term memory for object recognition (C57BL/6J male mice): no effect of dose
3 | < 1000 | < 1000 | < 1000 | A (A is greater than 1) | A (50%<A) | CC(C)(O)CN1CCC(=Cc2ccc(C(=O)Nc3ccccc3N)cc2)CC1 [F15] | A (A if less than 5 μM) | 
4 |  |  |  |  |  | CN1CCC(Cn2cc(/C=C/C(=O)Nc3ccccc3N)cn2)CC1 [G1, (E)-N-(2-aminophenyl)-3-(1-((1-methylpiperidin-4-yl)methyl)-1H-pyrazol-4-yl)acrylamide] |  | IC50 (HDAC1; [3]): 1000 to 5000 nM; IC50 (HDAC2; [3]): 1000 to 5000 nM; IC50 (HDAC3/NcoR2; [3]): < 1000 nM; IC50 ([2]; Homo sapiens, GM15850): 1 to 5 µM
5 | < 1000 | < 1000 | < 1000 | A (A is greater than 1) | C (30%>C>10%) | CC(C)(C)CN1CCC(=Cc2ccc(C(=O)Nc3ccccc3N)cc2)CC1 [F14] | A (A if less than 5 μM) | 
6 | < 1000 | < 1000 | < 1000 | A (A is greater than 1) | A (50%<A) | Nc1ccccc1NC(=O)c1ccc(C=C2CN(CC3CC3)C2)cc1 [F12] | A (A if less than 5 μM) | 
7 |  |  |  |  |  | Cn1cc(/C=C/C(=O)Nc2cc(F)ccc2N)cn1 [C3] |  | IC50 (HDAC1): 1000 to 5000 nM; IC50 (HDAC2): 1000 to 5000 nM; IC50 (HDAC3/NcoR2): < 1000 nM; IC50 [2]: > 20 µM
8 |  |  |  |  |  | Cc1nn(C/C=C/c2ccccc2)c(C)c1/C=C/C(=O)Nc1ccccc1N [G2, (E)-N-(2-aminophenyl)-3-(1-cinnamyl-3,5-dimethyl-1H-pyrazol-4-yl)acrylamide] |  | IC50 (HDAC1; [3]): 1000 to 5000 nM; IC50 (HDAC2; [3]): 1000 to 5000 nM; IC50 (HDAC3/NcoR2; [3]): < 1000 nM; IC50 ([2]; Homo sapiens, GM15850): 10 to 20 µM

— patent US9908899B2 (BIOMARIN PHARMACEUTICAL INC., priority 2011, dated 2018)
